Assay results taken from PMC9825998 (The Journal of Physiology, 2022).
Like-named read-outs stand apart in the source and are kept apart here.

Tests used:
Kir6.2‐K39R+SUR1 [1] = molecular target: T1, Kir6.2‐K39R+SUR1 (Homo sapiens, UniProt Q14654, K39R); parameters: method as in previous submission of this manuscript; settings: construct not specified further, quoted by Referee #4, ref previous submission of this manuscript; cited from earlier work
T1 construct: expressed in transfected cells; host or cells: HEK293T
T1 sequence (Q14654 whole entry K39R): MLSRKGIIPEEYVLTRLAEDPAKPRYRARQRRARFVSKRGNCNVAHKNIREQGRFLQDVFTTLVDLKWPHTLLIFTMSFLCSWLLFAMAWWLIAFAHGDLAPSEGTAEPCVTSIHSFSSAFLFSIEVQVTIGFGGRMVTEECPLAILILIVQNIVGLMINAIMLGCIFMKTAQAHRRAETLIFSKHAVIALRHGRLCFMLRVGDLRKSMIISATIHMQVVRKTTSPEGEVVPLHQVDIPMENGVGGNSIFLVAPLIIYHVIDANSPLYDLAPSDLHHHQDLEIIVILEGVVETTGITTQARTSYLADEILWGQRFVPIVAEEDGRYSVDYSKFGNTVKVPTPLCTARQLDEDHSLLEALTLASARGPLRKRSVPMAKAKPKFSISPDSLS
T1 sequence (Q09428 whole entry partner): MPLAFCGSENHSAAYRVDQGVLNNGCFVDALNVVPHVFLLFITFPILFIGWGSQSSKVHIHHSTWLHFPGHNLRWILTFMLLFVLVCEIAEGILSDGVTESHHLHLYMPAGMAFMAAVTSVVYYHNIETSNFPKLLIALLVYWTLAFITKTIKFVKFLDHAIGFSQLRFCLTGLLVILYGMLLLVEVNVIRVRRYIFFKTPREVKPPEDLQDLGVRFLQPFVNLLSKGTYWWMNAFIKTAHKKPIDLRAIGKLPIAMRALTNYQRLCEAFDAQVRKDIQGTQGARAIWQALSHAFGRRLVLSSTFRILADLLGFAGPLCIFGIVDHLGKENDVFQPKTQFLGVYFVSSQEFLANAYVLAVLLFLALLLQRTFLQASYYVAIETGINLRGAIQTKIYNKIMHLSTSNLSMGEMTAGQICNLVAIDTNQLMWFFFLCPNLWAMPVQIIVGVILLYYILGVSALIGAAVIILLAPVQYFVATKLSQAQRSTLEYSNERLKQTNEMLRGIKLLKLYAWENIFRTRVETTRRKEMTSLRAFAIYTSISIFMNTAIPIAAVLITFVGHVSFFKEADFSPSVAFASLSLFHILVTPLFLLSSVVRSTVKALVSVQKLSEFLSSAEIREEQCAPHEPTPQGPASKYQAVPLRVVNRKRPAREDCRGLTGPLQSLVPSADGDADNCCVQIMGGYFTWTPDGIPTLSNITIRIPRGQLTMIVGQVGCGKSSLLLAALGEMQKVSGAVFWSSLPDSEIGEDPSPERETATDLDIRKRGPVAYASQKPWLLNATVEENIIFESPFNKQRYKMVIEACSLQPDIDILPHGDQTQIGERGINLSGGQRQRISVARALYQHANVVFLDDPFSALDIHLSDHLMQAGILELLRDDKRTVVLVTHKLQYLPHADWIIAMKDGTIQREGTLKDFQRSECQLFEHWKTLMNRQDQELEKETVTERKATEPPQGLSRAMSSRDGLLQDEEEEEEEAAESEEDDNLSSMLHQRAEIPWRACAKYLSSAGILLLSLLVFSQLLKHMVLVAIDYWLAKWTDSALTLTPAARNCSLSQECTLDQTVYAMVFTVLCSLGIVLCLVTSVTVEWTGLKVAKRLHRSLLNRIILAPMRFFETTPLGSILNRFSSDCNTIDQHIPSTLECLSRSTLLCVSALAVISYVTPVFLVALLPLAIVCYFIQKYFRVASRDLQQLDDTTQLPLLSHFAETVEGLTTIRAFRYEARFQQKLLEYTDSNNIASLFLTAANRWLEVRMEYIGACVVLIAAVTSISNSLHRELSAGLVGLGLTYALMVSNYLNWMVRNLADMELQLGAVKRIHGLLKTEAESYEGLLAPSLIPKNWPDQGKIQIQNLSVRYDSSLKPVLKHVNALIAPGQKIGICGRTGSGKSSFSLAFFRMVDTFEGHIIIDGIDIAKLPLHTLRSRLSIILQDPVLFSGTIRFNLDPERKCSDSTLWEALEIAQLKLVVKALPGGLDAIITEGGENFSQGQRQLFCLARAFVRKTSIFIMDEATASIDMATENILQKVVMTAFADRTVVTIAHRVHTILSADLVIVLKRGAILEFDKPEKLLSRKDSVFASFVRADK

Kir6.2‐K39A+SUR1 [2] = molecular target: T2, Kir6.2‐K39A+SUR1 (Homo sapiens, UniProt Q14654, K39A); experiment: Nucleotide inhibition of KATP currents in inside-out patches from HEK293T cells, Hill fit; format: biochemical
T2 construct: expressed in transfected cells; host or cells: HEK293T
T2 sequence (Q14654 whole entry K39A): as the sequence (Q14654 whole entry K39R) above, with R39A counted along it
T2 sequence (Q09428 whole entry partner): as the sequence (Q09428 whole entry partner) above
Description: (§1) Human Kir6.2 and SUR1 were subcloned into pCGFP_EU [green fluorescent proten (GFP)‐tagged constructs] and pcDNA4/TO, respectively. Site‐directed mutagenesis and amber stop codons were introduced using the QuikChange XL system (Stratagene, San Diego, CA, USA) and verified by sequencing (DNA Sequencing and Services, Dundee, UK), as previously described (Usher et al., [2020]). HEK293T cells were grown in Dulbecco's modified Eagle's medium (DMEM; Sigma) with the addition of 10% fetal bovine serum, 100 U ml^−1 penicillin and 100 μg ml^−1 streptomycin (Thermo Fisher Scientific; Waltham, MA, USA) at 37°C, 5:95 CO2:air. Cells were seeded in T25 flasks for 24 h, before transfection with TransIT‐LT1 (Mirus Bio LLC, Madison, WI, USA). Protein expression and trafficking to the plasma membrane were optimized by including 300 μM tolbutamide in the transfection media (Yan et al., [2007]). 3‐(6‐Acetylnaphthalen‐2‐ylamino)‐2‐aminopropanoic acid (ANAP)‐tagged Kir6.2 constructs were cultured in the presence of 20 μM ANAP (free acid; AsisChem, Waltham, MA, USA), and 48 h post‐transfection the cells were re‐plated onto either poly‐D‐lysine‐coated glass‐bottomed FluoroDishes (FD35‐PDL‐100; World Precision Instruments) or poly‐L‐lysine‐coated 35 mm Petri dishes (Corning). pCDNA4/TO and pANAP were obtained from Addgene. peRF1‐E55D (Homo sapiens) and pCGFP_EU (Aequorea victoria) were kind gifts from the Chin Laboratory (MRC Laboratory of Molecular Biology, Cambridge, UK) and Gouaux Laboratory (Vollum Institute, Portland, OR, USA), respectively.
(§2) Extracellular (pipette) solutions contained (mM): 140 KCl, 1 EGTA and 10 Hepes (pH adjusted to 7.3 with KOH). The intracellular (bath) solutions contained (mM): 140 KCl, 1 EDTA, 1 EGTA, 10 Hepes (pH adjusted to 7.3 with KOH). Inside‐out patches were excised from transfected HEK293T cells using borosilicate glass pipettes (GC150F‐15; Harvard Apparatus, Holliston, MA, USA) pulled to a resistance of 1–3 MΩ. Data were acquired at a holding potential of −60 mV using an Axopatch 200B amplifier and a Digidata 1322A digitizer run through pClamp 9 software (Molecular Devices, San Jose, CA, USA).

Kir6.2‐K39E+SUR1 = molecular target: T3, Kir6.2‐K39E+SUR1 (Homo sapiens, UniProt Q14654, K39E); experiment: as above; format: biochemical
T3 construct: expressed in transfected cells; host or cells: HEK293T
T3 sequence (Q14654 whole entry K39E): as the sequence (Q14654 whole entry K39R) above, with R39E counted along it
T3 sequence (Q09428 whole entry partner): as the sequence (Q09428 whole entry partner) above
Description: as §1, §2

Kir6.2+SUR1 = molecular target: T4, Kir6.2+SUR1 (Homo sapiens, UniProt Q14654); experiment: as above; format: biochemical
T4 construct: expressed in transfected cells; host or cells: HEK293T
T4 sequence (Q14654 whole entry): as the sequence (Q14654 whole entry K39R) above, with R39K counted along it
T4 sequence (Q09428 whole entry partner): as the sequence (Q09428 whole entry partner) above
Description: as §1, §2

Kir6.2‐K39R+SUR1 [3] = molecular target: T1, Kir6.2‐K39R+SUR1; experiment: as above; format: biochemical
Description: as §1, §2

Kir6.2‐K39A+SUR1 [4] = molecular target: T2, Kir6.2‐K39A+SUR1; parameters: method as in previous submission of this manuscript; settings: construct not specified further, quoted by Referee #4, ref previous submission of this manuscript; cited from earlier work

Nc1ncnc2c1ncn2[C@@H]1O[C@H](COP(=O)(O)OP(=O)(O)OP(=O)(O)O)[C@H]2OC3(O[C@H]21)C([N+](=O)[O-])=CC(=[N+]([O-])[O-])C=C3[N+](=O)[O-] (stereo partly drawn) [TNP‐ATP, trinitrophenyl adenosine triphosphate]
IC50 (Kir6.2‐K39R+SUR1 [1]): 2.62 µM | IC50 (Kir6.2‐K39A+SUR1 [2]): 11 µM | IC50 (Kir6.2‐K39E+SUR1): 11.8 µM | IC50 (Kir6.2+SUR1): 1.08 µM | IC50 (Kir6.2‐K39R+SUR1 [3]): 2.48 µM | IC50 (Kir6.2‐K39A+SUR1 [4]): 13.2 µM
